≈ marks a conversion by molar mass, not a printed value.
Legend:
KB = assay: Cytotoxicity against human KB cells by MTT assay; format: functional; conditions: read-out: ED50 (the source's name)
[1] = Cytotoxicity against human Hepa59T/VGH cells by MTT assay; format: functional; conditions: HEPA 59T/VGH, read-out: ED50 (the source's name)
[2] = Cytotoxicity against human Med cells by MTT assay; format: cell-based; conditions: read-out: ED50 (the source's name)
HeLa = assay: Cytotoxicity against human HeLa cells by MTT assay; format: functional; conditions: read-out: ED50 (the source's name)

`C=C1C(=O)O[C@@H]2C[C@H]1C/C=C(\C)[C@@H](O)CC/C(C)=C/CC[C@]2(C)O` [MANAARENOLIDE G] gave an EC50 (KB) of 8.7 µg/mL (≈ 26 µM), an EC50 [1] of 7.2 µg/mL (≈ 21.5 µM) and a CC50 [2] of 13.4 µg/mL (≈ 40.1 µM). The EC50 (HeLa) was 10.9 µg/mL (≈ 32.6 µM).
With `C=C1C(=O)O[C@@H]2C[C@H]1C/C=C(/C)[C@@H](O)CC/C(C)=C/CC[C@]2(C)O` [MANAARENOLIDE H] the EC50 (KB) was 7.6 µg/mL (≈ 22.7 µM), the EC50 [1] was 7.4 µg/mL (≈ 22.1 µM) and the CC50 [2] was 5.8 µg/mL (≈ 17.3 µM). For the same compound, the EC50 (HeLa) was 9.3 µg/mL (≈ 27.8 µM).

From ChEMBL document CHEMBL1158032, “Manaarenolides A-I, diterpenoids from the soft coral Sinularia manaarensis” (J Nat Prod, 2006)
